Laboratory results from patent US20250205231A1, “Tear Film Stability” (priority 2012, published 2025).
Values joined by “and” are separate entries in the source; they are usually repeats but may differ in a detail not shown here. Equal values may be shown once. “Also recorded” adds a separate entry of the source.

Columns and labels:
[1] = tested on: patients with dry eye and blepharitis; test: Face score (facial analogue scale, Goto et al 2002), topical statin pilot study; assay type: in vivo, human; parameters: Facescale score: scale not given here
From the text: (§1) Aim: To investigate topical statin as a novel therapy for dry eyes associated with blepharitis. Methods: 10 patients with symptoms and signs of dry eye and blepharitis were enrolled in a prospective pilot study of topical statin therapy over 1 month. The primary outcome measure was corneal fluorescein staining. Results: An Improvement in corneal fluorescein staining by a 3 points from baseline to completion of the trial at week four was found in 6 of 10 patients in the study eye. Subjective dry eye symptoms improved (p=0.005). […] Conclusions: Topical statins are a suitable therapy for patients with dry eye and blepharitis. They can be easily manufactured and could be widely available.
(§2) 10 patients were enrolled and completed the study.
(§3) Patients with • 1) Any symptoms of dry eyes and blepharitis • 2) Any signs of dry eyes: • BUT (tear break up time)≤5 sec, or • Punctate epithelial erosions in at least one eye • 3) Any signs of blepharitis: • Anterior lid margin—grease, skin scales, collarets, frank ulcers, loss of lashes and inflammation • Posterior lid margin—cheesy secretions, blocked meibomian glands >⅓, telangiectasia, meibomitis, notched lid margin and chalaza • 4) Male or female patients greater or equal to 18 years of age • 5) Patients able to give written informed consent and comply with study protocol […]
(§4) Patients were evaluated at weeks 1, 2, 3 and 4. […]

[2] = tested on: patients with dry eye and blepharitis; test: Corneal fluorescein staining (National Eye Institute scoring 0-15), topical statin pilot study; assay type: in vivo, human
From the text: as §1, §2
(§5) Patients with • 1) Any symptoms of dry eyes and blepharitis • 2) Any signs of dry eyes: • BUT (tear break up time)≤5 sec, or • Punctate epithelial erosions in at least one eye • 3) Any signs of blepharitis: • Anterior lid margin—grease, skin scales, collarets, frank ulcers, loss of lashes and inflammation • Posterior lid margin—cheesy secretions, blocked meibomian glands >⅓, telangiectasia, meibomitis, notched lid margin and chalaza • 4) Male or female patients greater or equal to 18 years of age • 5) Patients able to give written informed consent and comply with study protocol
(§6) • 1) Subjective • Total symptoms score • Face score (Goto et al 2002) • 2) Objective • a) Tear film break-up time (BUT) • b) Corneal fluorescein staining • b) Blepharitis score • c) Bulbar conjunctival injection • d) Concomitant use of topical therapy
(§7) Patients were evaluated at weeks 1, 2, 3 and 4. However, the primary endpoint was at trial completion (4 weeks). A p value <0.050 was considered statistically significant.

[3] = tested on: patients with dry eye and blepharitis; test: Safety evaluation: best-corrected visual acuity (BCVA); details: baseline to study completion
[4] = tested on: patients with dry eye and blepharitis; test: Tear film break-up time (BUT), topical statin pilot study; assay type: in vivo, human; details: 1 month topical therapy
From the text: as §1, §2, §3, §4

[5] = tested on: patients with dry eye and blepharitis; test: Safety evaluation: cataract and adverse reactions; assay type: in vivo, human
From the text: as §2

[6] = tested on: patients with dry eye and blepharitis; test: Subjective dry eye symptom scores (global and individual), topical statin pilot study; assay type: in vivo, human; parameters: Global Symptom score: scale not given here
From the text: as §1, §2, §5, §6, §7

[7] = tested on: patients with dry eye and blepharitis; test: Blepharitis score, topical statin pilot study; assay type: in vivo, human; parameters: Blepharitis score: scale not given here
From the text: as §1, §2, §3, §4

[8] = tested on: patients with dry eye and blepharitis; test: Schirmer I test, topical statin pilot study; assay type: in vivo, human; details: baseline to week four
From the text: as §1, §2, §5, §4

[9] = tested on: patients with dry eye and blepharitis; test: Safety evaluation: intraocular pressure (IOP); details: baseline to study completion
[10] = tested on: patients with dry eye and blepharitis; test: Concomitant use of topical lubricants, topical statin pilot study; assay type: in vivo, human
From the text: as §2, §6
Prior to the study, 6 patients were using topical lubricants an average of 6 times a day (range 2 to 8. SD 2.3); 4 of these patients were using preservative-free lubricants. At study completion, 2 patients had ceased their topical lubrication, and 3 of the remaining 4 patients had reduced the frequency of lubricant use to an average of 4 times a day (range 3 to […]). […] One patient had had punctal occlusion in the study eye. 4 patients were performing lid massage with hot compresses and 4 were using a cotton bud for lid hygiene, 1 with bicarbonate of soda solution and 2 with shampoo. Patients were asked not to change these regimes during the study period.

[11] = 1 month, study eye, individual patients 1-10, listed as topical statin

## CC(C)c1c(C(=O)Nc2ccccc2)c(-c2ccccc2)c(-c2ccc(F)cc2)n1CC[C@@H](O)C[C@@H](O)CC(=O)O [Atorvastatin]
[1]; 1 month, facial analogue scale, individual patients 1-10, listed as topical statin
  Facescale score: 4 (3×) and 1 and 3 (2×) and 5 (3×) and 2
[1]; enrolment to week four
  Change in face score (in words): significant improvement
[2]; 1 month, NEI scale 0-15, individual patients 1-10, 50 microM, 8 times a day, listed as topical statin
  Corneal fluorescein score: 1 (2×) and 0 (4×) and 2 (3×) and 4
[2]; of 10 patients, baseline to week four
  Patients with improvement in corneal fluorescein staining by three or more points: 6 patients
[2]; of the 10 patients
  Patients with corneal fluorescein staining score improved by more than one point: 9 patients
[3]
  Change in BCVA, fellow eye (in words): no significant change
  Change in BCVA, study eye (in words): no significant change
[4]
  Effect on tear film break-up time (in words): significantly improved
[5]; 1 month topical therapy, both eyes, 10 patients, listed as topical statin
  Adverse events / side-effects: no serious or irreversible side-effects; also recorded: No adverse events were reported
[5]; baseline to study completion
  Cataract development: no patient developed cataract
[6]; 1 month topical therapy
  Effect on subjective dry eye symptoms (in words): improved
[6]; [11]
  Global Symptom score: 5 and 0 (5×) and 3 and 4 and 1 and 2
[6]; enrolment to week four
  Change in blurred vision score (in words): no significant change
  Change in discomfort score (in words): significant improvement
  Change in dryness score (in words): significant improvement
  Change in foreign body sensation score (in words): significant improvement
  Change in photophobia score (in words): no significant change
  Change in redness score (in words): significant improvement
  Change in watering score (in words): significant improvement
[7]; 1 month topical therapy
  Effect on blepharitis score (in words): significantly improved
[7]; [11]
  Blepharitis score: 7 (2×) and 5 (3×) and 4 (3×) and 2 (2×)
[8]
  Change in Schirmer I test result (in words): no significant change
[9]
  Change in IOP, study eye (in words): no change
[10]; of 6 patients using topical lubricants prior to the study
  Patients who had ceased their topical lubrication at study completion: 2 patients
[10]; of the remaining 4 patients, at study completion
  Patients who had reduced the frequency of lubricant use: 3 patients
[10]; range 3 to 6, SD 0.6, prior to the study average 6 times a day
  Average frequency of lubricant use at study completion: 4 times a day
